Values of other authors, collected in patent publication US20240082176A1 (Productos Farmaceuticos, S.A. DE C.V., priority 2017, published 2024).

What was measured:
[1] = in vivo
[2] = test system: citric acid-induced cough
[3] = in vivo; remark: listed apart in the source

In the case of `OCC(O)CN1CCN(c2ccccc2)CC1` (racemic) [dropropizine, (R, S)-3-(4-phenylpiperazin-1-yl) propane-1,2-diol], the elimination half-life [1] is listed as 4 h, the “time after administration at which cough suppression is reached” value ([2]; after the administration of the drug) is listed as 1 h and the “period for which the antitussive effect persists” value ([2]; human, in vivo) is listed as 6 h. For the same compound, the “antitussive activity compared with codeine” value (cough; vs codeine) was “comparable” and the “antitussive activity compared with its levo enantiomer” value (cough; vs levodropropizine) was “comparable”.

In the case of `Nc1c(Br)cc(Br)cc1CN[C@H]1CC[C@H](O)CC1` [ambroxol, trans-4-[(2-amino-3,5-dibromophenyl)methylamino] cyclohexane-1-ol], the “renal clearance as share of total clearance” value [3] is listed as 8% and the terminal elimination half-life [3] is listed as 10 h.

In the case of `OC[C@@H](O)CN1CCN(c2ccccc2)CC1` [levodropropizine], the oral bioavailability (estimated) is listed as “greater than 75%”, the “half-life t1/2” value (in vivo) is listed as 2 h and the plasma protein binding (plasma protein) is listed as 11-14%.
